According to patent publication US20240084237A1, “A DEVICE HAVING A SUPPORT STRUCTURE FOR CREATING A HOLLOW, THREE-DIMENSIONAL ORGANOIDS AND CULTURES” (The Trustees of Indiana University, priority 2021, published 2024):

System: iMG incorporated into the hollow organoid culture
Experiment: neural inflammation model: iMG incorporated into hollow (tubular) brain organoid culture, drug treatment
Assay type: cell-based, human
Settings: for response of iMG incorporated into the hollow organoid culture to external stimulation: recapitulating the in vivo phenotype and functions during neural inflammation, LPS 100 ng/mL 24 hours followed by ATP 2 mM 30 minutes, DAMGO 100 nM 24 hours
Description: To differentiate WA01 cells into microglia, WA01 cells were plated onto Matrigel (Corning) coated 6-well plate at a density of 30-40 colonies per well. The WA01 cells were then differentiated into hematopoietic progenitor cells (HPC) using STEMdiff hematopoietic kit (Stemcell Technologies). The differentiated WA01 derived HPC was then further differentiated into induced microglia (iMG) cells using STEMdiff Microglia Differentiation kit (Stemcell Technologies).
To treat microglia cultured in well plates or microglia embedded in hFO, lipopolysaccharide (LPS) (Sigma) is dosed at 100 ng/mL for 24 hours followed by Adenosine 5′-triphosphate (ATP) (Sigma) at a concentration of 2 mM for 30 minutes. Similarly, DAMGO was given at a concentration of 100 nM for 24 hours. For LY-2828360 (Cayman Chemicals) treatment, microglia treated with DAMGO for 24 hours was refreshed with a medium containing 100 nM LY-2828360 for an additional 24 hours.
To visualize inflammasome activation inside microglia cells, we analyzed NLRP3/ASC colocalization by proximity ligation assay (PLA). Samples were subject to NLRP3/ASC staining following by colocalization PLA using the Duolink in situ red kit (Sigma). After the PLA labeling, samples were then additionally labeled by Iba1/MAP2 before coverslipped with Prolong gold anti-fade DAPI mounting medium (Thermo Fisher) and visualized under an inverted fluorescence microscope (Olympus IX-83).
Conditioned medium of 24 hours (total volume 500 μL) from control conditions or drug-treated conditions were collected from microglia cultured in 24 well plates or incorporated inside tubular organoids. The medium was centrifuged at 2,000 g for 10 minutes to remove cell debris. 400 μL of supernatant was then aspirated and used for ELISA assays. Samples were assayed using ELISA plates for IL-1β (Tribioscience), IL-18 (Tribioscience), and TNF-α (Abcam). Each sample was tested in triplicates and read at 450 nm for absorbance.

Molecule	response of the neural inflammation model to treatment (therapeutics screening) (100 nM for additional 24 hours after DAMGO 24 hours)	response of iMG incorporated into the hollow organoid culture to external stimulation
Cc1nc(N2CCN(C)CC2)c2nc(-c3ccccc3Cl)n(C3CCOCC3)c2n1 [LY282860]	evident responses	
C[C@@H](NC(=O)[C@@H](N)Cc1ccc(O)cc1)C(=O)NCC(=O)N(C)[C@@H](Cc1ccccc1)C(=O)NCCO [DAMGO]		can respond
lipopolysaccharide [LPS]		can respond
